Laboratory results reported in patent publication US8501683B2, “Cycloundecadepsipeptide compounds and use of said compounds as a medicament” (priority 2008, dated 2013).
Square brackets hold non-standard residues; d marks the D form. Peptide text beside a SMILES is read from it. MeBmt = C/C=C/C[C@@H](C)[C@@H](O)[C@H](NC)C(=O)O; NMeI = CC[C@H](C)[C@H](NC)C(=O)O; NMeL = CN[C@@H](CC(C)C)C(=O)O; NMeV = CN[C@H](C(=O)O)C(C)C; dHiv = CC(C)[C@@H](O)C(=O)O; NMeA = CN[C@@H](C)C(=O)O; dNMeA = CN[C@H](C)C(=O)O; Abu = CC[C@H](N)C(=O)O; Sar = CNCC(=O)O

Legend:
[1] = target: multidrug resistance associated protein 2 (MRP2) (Homo sapiens, UniProt Q92887); conditions: for MRP2 fold Debio 025: IC50 ratio compared to Debio 025
multidrug resistance associated protein 2 (MRP2), sequence (Q92887 whole entry): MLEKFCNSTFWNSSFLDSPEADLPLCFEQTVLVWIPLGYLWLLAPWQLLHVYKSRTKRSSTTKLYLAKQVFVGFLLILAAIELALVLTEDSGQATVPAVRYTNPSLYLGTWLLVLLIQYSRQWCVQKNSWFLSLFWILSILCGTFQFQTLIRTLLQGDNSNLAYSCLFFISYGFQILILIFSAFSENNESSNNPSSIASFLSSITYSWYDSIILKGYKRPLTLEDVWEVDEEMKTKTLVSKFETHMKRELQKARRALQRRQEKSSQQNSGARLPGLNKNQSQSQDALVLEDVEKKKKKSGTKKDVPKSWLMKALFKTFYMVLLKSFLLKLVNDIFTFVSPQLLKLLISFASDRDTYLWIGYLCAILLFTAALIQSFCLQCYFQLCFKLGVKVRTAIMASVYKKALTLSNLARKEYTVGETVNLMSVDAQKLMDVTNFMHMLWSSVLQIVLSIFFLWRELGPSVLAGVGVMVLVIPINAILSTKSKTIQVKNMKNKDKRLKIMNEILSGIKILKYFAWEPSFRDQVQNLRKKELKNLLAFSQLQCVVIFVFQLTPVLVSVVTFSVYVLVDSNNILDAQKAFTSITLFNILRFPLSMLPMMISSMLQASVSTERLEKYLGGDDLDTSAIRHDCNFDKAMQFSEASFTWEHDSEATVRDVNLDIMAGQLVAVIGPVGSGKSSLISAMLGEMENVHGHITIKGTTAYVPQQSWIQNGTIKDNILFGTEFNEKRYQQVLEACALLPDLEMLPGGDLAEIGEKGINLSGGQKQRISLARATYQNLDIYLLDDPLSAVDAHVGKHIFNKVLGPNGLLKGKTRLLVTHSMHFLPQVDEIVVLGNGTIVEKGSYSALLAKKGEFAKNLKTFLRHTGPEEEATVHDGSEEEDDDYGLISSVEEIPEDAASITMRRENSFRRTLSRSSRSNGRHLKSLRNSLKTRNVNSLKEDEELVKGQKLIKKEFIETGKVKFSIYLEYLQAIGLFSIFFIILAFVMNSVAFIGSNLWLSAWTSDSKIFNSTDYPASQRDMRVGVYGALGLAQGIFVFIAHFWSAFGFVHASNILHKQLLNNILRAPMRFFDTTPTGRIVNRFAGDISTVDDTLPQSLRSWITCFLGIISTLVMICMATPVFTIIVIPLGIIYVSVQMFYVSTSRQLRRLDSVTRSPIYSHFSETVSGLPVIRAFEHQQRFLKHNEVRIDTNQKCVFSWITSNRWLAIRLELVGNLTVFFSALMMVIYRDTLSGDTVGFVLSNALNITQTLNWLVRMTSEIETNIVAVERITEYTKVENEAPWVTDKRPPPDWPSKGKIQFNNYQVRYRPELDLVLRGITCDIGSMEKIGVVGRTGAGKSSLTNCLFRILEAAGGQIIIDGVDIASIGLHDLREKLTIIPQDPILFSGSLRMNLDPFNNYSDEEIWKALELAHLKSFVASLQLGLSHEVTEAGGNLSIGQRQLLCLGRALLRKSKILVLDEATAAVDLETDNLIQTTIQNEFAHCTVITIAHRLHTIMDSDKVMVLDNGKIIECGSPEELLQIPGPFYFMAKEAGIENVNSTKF
Protocol: (§1) To determine whether the cycloundecadepsipeptide compounds of the present invention interact with hepatic transporters, experiments were carried out that compared the concentration-dependent inhibition towards the multidrug resistance associated protein 2 (MRP2), the organic anion transporting polypeptide 1B1 (OATP1B1), the bile salt export pump (BSEP) and the sodium-taurocholate cotransporting polypeptide (NTCP). These transporters are involved in the hepatobiliary circulation of endogenous compounds such as bile salts or bilirubin (for a review, see C. Pauli-Magnus et al, J. Hepatology, 2005, 43:342-357). Some of them also contribute to the elimination of xenobiotics.
(§2) MRP2 and BSEP were expressed by SOLVO Biotechnology in Spodoptera frugiperda (Sf9) ovarian cells, by infecting the insect cells with a recombinant baculovirus. The inhibition of the transport of the radioactive probe substrates (estradiol-17-beta-glucuronide and taurocholate for MRP2 and BSEP, respectively) into inside-out membrane vesicles, containing the transporter, was measured by scintillation counting.
(§3) The IC50 (defined as the concentration required for inhibiting the transport of the probe substrate by 50%, half maximal inhibitory concentration) of the compounds was derived from the concentration-response curve and compared to the IC50 of Debio 025 (IC50 ratio expressed as “fold Debio 025” in the tables).

[2] = target: bile salt export pump (BSEP) (Homo sapiens, UniProt O95342); conditions: for BSEP fold Debio 025: IC50 ratio compared to Debio 025
bile salt export pump (BSEP), sequence (O95342 whole entry): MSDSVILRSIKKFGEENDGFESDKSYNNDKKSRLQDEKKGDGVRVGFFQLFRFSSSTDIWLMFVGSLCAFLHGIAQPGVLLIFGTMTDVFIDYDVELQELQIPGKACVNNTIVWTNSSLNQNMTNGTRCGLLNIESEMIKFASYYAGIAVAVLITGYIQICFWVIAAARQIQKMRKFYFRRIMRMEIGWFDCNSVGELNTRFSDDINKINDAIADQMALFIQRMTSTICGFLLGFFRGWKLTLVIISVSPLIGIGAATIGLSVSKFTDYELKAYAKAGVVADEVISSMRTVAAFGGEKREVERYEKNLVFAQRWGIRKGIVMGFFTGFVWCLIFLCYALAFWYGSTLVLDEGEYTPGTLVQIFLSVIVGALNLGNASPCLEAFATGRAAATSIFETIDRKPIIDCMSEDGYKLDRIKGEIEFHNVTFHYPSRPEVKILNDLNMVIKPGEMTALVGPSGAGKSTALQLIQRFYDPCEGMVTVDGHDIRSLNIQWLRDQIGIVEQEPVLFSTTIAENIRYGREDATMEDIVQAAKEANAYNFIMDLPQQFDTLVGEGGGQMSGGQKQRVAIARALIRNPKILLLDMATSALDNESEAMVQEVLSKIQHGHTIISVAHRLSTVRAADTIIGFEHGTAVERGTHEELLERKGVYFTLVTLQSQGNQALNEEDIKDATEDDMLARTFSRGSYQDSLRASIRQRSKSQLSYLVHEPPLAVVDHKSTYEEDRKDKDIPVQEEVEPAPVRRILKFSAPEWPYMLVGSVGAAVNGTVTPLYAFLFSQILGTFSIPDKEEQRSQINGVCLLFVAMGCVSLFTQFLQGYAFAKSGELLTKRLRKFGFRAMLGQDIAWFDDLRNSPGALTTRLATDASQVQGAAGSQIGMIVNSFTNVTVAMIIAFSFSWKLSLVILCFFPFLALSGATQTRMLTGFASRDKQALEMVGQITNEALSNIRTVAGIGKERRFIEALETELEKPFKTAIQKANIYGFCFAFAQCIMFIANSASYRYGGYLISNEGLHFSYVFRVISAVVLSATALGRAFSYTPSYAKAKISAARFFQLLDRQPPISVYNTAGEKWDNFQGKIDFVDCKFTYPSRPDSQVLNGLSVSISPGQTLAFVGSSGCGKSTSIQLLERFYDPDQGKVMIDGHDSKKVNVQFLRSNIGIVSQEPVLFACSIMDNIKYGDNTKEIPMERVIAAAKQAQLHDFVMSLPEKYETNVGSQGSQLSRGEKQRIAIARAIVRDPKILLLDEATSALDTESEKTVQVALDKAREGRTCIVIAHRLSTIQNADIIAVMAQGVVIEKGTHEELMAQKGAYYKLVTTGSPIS
Protocol: as §1, §2, §3

[3] = target: T1, sodium-taurocholate cotransporting polypeptide (NTCP) (Homo sapiens, UniProt Q14973); test: NTCP inhibition, taurocholate uptake in CHO cells; format: in vitro ADME; conditions: for NTCP fold Debio 025: IC50 ratio compared to Debio 025
T1 sequence (Q14973 1-349): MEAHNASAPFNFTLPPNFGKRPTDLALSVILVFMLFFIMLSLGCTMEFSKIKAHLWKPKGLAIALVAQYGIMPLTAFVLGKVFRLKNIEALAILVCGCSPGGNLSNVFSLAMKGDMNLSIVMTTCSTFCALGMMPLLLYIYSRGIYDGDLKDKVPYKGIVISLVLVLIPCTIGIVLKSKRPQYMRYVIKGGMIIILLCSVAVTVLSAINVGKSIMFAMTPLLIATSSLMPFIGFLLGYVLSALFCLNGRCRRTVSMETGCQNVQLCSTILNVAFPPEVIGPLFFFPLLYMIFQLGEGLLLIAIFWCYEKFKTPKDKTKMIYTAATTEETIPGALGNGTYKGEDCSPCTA

[4] = tested on: hepatitis C virus genotype 1b Con1 replicon; test: HCV replicon assay, replicon RNA by RT-qPCR in Huh 9-13 cells; format: cell-based; conditions: 50% inhibition of HCV replicon replication, 3 dose-response curves
Protocol: For the evaluation of antiviral effects, assay medium was aspirated and the plates with dry monolayer were stored at −80° C. awaiting extraction. Following thawing of the plates at room temperature, the cell monolayer was lysed with 100 μl of cell-to-cDNA lysis buffer (Invitrogen). Lysis of the cells was allowed to proceed for 10 min at room temperature after which all liquid was transferred to a PCR plate (Axygen). The PCR plate was incubated for 15 min at 75° C. […] The lysate was diluted 1:2 with RNase/DNase-free water, after which 5 μl was transferred to the real-time PCR plate (Applied Biosystems).
Replicon RNA content was quantified using a real-time quantitative one-step RT-PCR method (RT-qPCR): Low Rox One-Step RT-qPCR master mix, Abgene). […] The fluorogenic probe was 5′-[sequence]-3′. The analysis of the samples were performed using a SDS7500F (Applied Biosystems, standard thermocycling profile: 30 min at 48° C., 10 min at 95° C., 40 cycles of 15 sec at 95° C. and 1 min at 60° C.) after which replicon RNA quantities were converted to percentage of untreated controls.

[5] = Cytostatic/cytotoxic effect, MTT (MTS) assay in Huh 9-13 cells; format: cell-based; conditions: metabolic activity reduced to 50% of untreated cells
Description: Assays used Huh 9-13 containing the hepatitis C virus genotype 1b Con1 replicon (Lohmann et al. 2001. J. Virol. 75:1437-1449; and Lohmann et al. 1999. Science. 285:110-113). Cells were sub-cultured in cell growth medium DMEM supplemented with 10% FCS, 1% non-essential amino acids, 1% penicillin/streptomycin and 2% Geneticin (Invitrogen) at a ratio of 1:4-1:5 and grown for 3-4 days in 75 cm^2 tissue culture flasks (Techno Plastic Products), were harvested and seeded in assay medium (DMEM, 10% FCS, 1% non-essential amino acids, 1% penicillin/streptomycin) at a density of 5 000 cells/well (100 μl/well) in 96-well tissue culture microtiter plates (Falcon, Beckton Dickinson) for evaluation of cytostatic/cytotoxic and antiviral effect. The microtiter plates were incubated overnight (37° C., 5% CO2, 95-99% relative humidity), yielding a non-confluent cell monolayer.
Cell density and cytostatic effects were estimated in parallel cultures in regular 96-well plates (Beckton-Dickinson) using the MTT assay (CellTiter 96 AQueous Non-Radioactive Cell Proliferation Assay, Promega). In this assay, 3-(4,5-dimethyl-thiazol-2-yl)-5-(3-carboxymethoxy-phenyl)-2-(4-sulfophenyl)-2H-tetrazolium (MTS) is bioreduced to a formazan that is quantified at 498 nm in a plate reader. Formazan production is directly correlated with number of life cells. Absorbance was measured at a wavelength of 498 nm (Safire^2, Tecan) and optical densities (OD values) were converted to percentage of untreated controls.
The compounds were dissolved in DMSO at a concentration of 4 mmole/L. Stock solutions were immediately used to set up the experiments. The compounds were tested at 24 different concentrations ranging from 0.0001 μmole/L to 100 μmole/L. The highest concentration of DMSO in the assay was determined to be 2.5% (at 100 μM final concentration of the compound). During the assay setup, the DMSO percentage decreased concomitantly with decrease in concentration of the compound.
The EC50 (value derived from the dose-response curve) represents the concentration at which 50% inhibition of viral replication is observed. The CC50 (value derived from the dose-response curve) represents the concentration at which the metabolic activity of the cells is reduced to 50% of the metabolic activity of untreated cells.
Results from these experiments permitted calculation of EC50±SD (standard deviation or Std. Dev.), which is the effective concentration required to inhibit HCV replicon replication by 50%, and of CC50±SD (whenever possible), which is the concentration required that inhibits the proliferation of exponentially growing cells by 50%. EC50 and CC50±SD values were calculated respectively as the median of all the EC50, or CC50 values derived from the 3 individual dose-response curves. The selectivity index (SI), indicative of the therapeutic window of the compound was calculated as the ratio between CC50 and EC50.

[6] = target: organic anion transporting polypeptide 1B1 (OATP1B1) (Homo sapiens, UniProt Q9Y6L6)
organic anion transporting polypeptide 1B1 (OATP1B1), sequence (Q9Y6L6 whole entry): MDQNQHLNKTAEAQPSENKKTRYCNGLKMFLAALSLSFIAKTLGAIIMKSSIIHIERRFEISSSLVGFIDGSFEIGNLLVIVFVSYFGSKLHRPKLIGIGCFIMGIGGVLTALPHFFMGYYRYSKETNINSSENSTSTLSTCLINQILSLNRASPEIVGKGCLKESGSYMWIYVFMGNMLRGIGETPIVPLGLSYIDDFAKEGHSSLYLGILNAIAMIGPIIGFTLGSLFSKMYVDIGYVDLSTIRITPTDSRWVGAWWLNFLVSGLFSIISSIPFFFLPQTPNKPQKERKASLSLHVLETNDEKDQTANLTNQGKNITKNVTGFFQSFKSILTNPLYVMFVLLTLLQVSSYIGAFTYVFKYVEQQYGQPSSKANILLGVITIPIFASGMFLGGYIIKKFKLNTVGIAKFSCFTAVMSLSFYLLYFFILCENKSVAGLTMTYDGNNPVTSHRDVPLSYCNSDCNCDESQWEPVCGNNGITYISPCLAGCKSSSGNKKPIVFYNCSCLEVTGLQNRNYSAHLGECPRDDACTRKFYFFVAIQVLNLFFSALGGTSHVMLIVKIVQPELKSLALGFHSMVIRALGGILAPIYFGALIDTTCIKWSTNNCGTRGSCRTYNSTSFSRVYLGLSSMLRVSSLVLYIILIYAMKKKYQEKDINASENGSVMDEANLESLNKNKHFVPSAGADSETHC
Protocol: as §1
OATP1B1 and NTCP assays were performed with Chinese hamster ovary (CHO) cells expressing these human uptake transporters. The amount of the transported probe substrate (estrone-3-sulfate and taurocholate for OATP1B1 and NTCP, respectively) was determined by liquid scintillation or fluorescent photometry after cell lysis.
as §3

[7] = tested on: Concanavalin-A-induced T-cell proliferation; test: Concanavalin-A-induced T-cell proliferation assay (immunosuppression); format: cell-based; conditions: inhibition of Concanavalin-A-induced T-cell proliferation
Protocol: To determine whether the cycloundecadepsipepide compounds of the present invention have a non-immunosuppression activity, experiments were carried out that compared the dose-dependent inhibition of Concanavalin-A-induced T-cell proliferation (see Table 2).
The method of the assays were performed as described by Dayton et al. (1992. Mol. Pharmacol. 41. 671-676) and Mishell et al. (1980. Cell proliferation in selected methods in cellular immunology, V, XXIX, W.H. Freeman Co., San Francisco, Calif. 153-160).

[8] = human, Huh 9-13 cells containing the HCV genotype 1b Con1 replicon

Compound | IC50 [1] | MRP2 fold Debio 025 [1] | IC50 [2] | BSEP fold Debio 025 [2] | NTCP fold Debio 025 [3] | IC50 ([3]; probe taurocholate, CHO cells) | EC50 [4] | CC50 [5, 8] | IC50 [6] | OATP1B fold Debio 025 [6] | IC50 [7] | CC50 [5] | MRP2 IC50 [1] | NTCP IC50 ([3]; probe taurocholate, CHO cells)
C/C=C/C[C@@H](C)[C@@H](O)[C@H]1C(=O)N[C@@H](CC)C(=O)N(C)[C@H](C)C(=O)N(C)[C@@H](C(C)C)C(=O)N[C@@H](C(C)C)C(=O)N(C)[C@@H](C)C(=O)N[C@@H](C)C(=O)O[C@H](C(C)C)C(=O)N(C)[C@@H](CC(C)C)C(=O)N[C@@H](CC(C)C)C(=O)N(C)[C@@H](C(C)C)C(=O)N1C [(Ie), cyclo-(MeBmt-Abu-D-MeAla-MeVal-Val-MeAla-Ala-D-Hiv-MeLeu-Leu-MeVal)] (cyclo(A[dHiv][NMeL]L[NMeV][MeBmt][Abu][dNMeA][NMeV]V[NMeA])) | 20 µM | 0.73 | 0.6 µM | 0.40 | 0.12 | 26 µM | 0.07 µM | 8.3 µM | 0.58 µM | 0.72 | 2 µM | – | – | –
Cyclosporin A [Cyclosporin A (CsA), reference compound] | – | – | – | – | – | – | – | – | – | – | 0.006 µM | – | – | –
C/C=C/C[C@@H](C)[C@@H](O)[C@H]1C(=O)N[C@@H](C(C)C)C(=O)N(C)[C@H](C)C(=O)N(C)[C@@H](C(C)C)C(=O)N[C@@H](C(C)C)C(=O)N(C)CC(=O)NCC(=O)O[C@H](C(C)C)C(=O)N(C)[C@@H](CC(C)C)C(=O)N[C@@H](CC(C)C)C(=O)N(C)[C@@H](C(C)C)C(=O)N1C [(Ik), cyclo-(MeBmt-Val-D-MeAla-MeVal-Val-Sar-Gly-D-Hiv-MeLeu-Leu-MeVal)] (cyclo(G[dHiv][NMeL]L[NMeV][MeBmt]V[dNMeA][NMeV]V[Sar])) | – | – | – | – | – | – | – | – | – | – | – | 9.8 µM | – | –
C/C=C/C[C@@H](C)[C@@H](O)[C@H]1C(=O)N[C@@H](C(C)C)C(=O)N(C)[C@H](C)C(=O)N(C)[C@@H](C(C)C)C(=O)N[C@@H](CC(C)C)C(=O)N(C)[C@@H](CC(C)C)C(=O)NCC(=O)O[C@H](C(C)C)C(=O)N(C)[C@@H](CC(C)C)C(=O)N[C@@H](CC(C)C)C(=O)N(C)[C@@H](C(C)C)C(=O)N1C [(If), cyclo-(MeBmt-Val-D-MeAla-MeVal-Leu-MeLeu-Gly-D-Hiv-MeLeu-Leu-MeVal)] (cyclo(G[dHiv][NMeL]L[NMeV][MeBmt]V[dNMeA][NMeV]L[NMeL])) | – | – | 0.48 µM | 0.50 | – | – | 0.025 µM | 81.8 µM | 15 µM | 0.03 | 7.73 µM | – | n.i. | n.i.
C/C=C/C[C@@H](C)[C@@H](O)[C@H]1C(=O)N[C@@H](C(C)C)C(=O)N(C)[C@H](C)C(=O)N(C)[C@@H](C(C)C)C(=O)N[C@@H]([C@@H](C)CC)C(=O)N(C)[C@@H](CC(C)C)C(=O)NCC(=O)O[C@H](C(C)C)C(=O)N(C)[C@@H](CC(C)C)C(=O)N[C@@H](CC(C)C)C(=O)N(C)[C@@H](C(C)C)C(=O)N1C [(Ic), cyclo-(MeBmt-Val-D-MeAla-MeVal-Ile-MeLeu-Gly-D-Hiv-MeLeu-Leu-MeVal)] (cyclo(G[dHiv][NMeL]L[NMeV][MeBmt]V[dNMeA][NMeV]I[NMeL])) | 2.2 µM | 6.6 | 0.16 µM | 1.5 | 0.11 | 30 µM | 0.022 µM | 86.9 µM | 2.3 µM | 0.18 | 0.984 µM | – | – | –
C/C=C/C[C@@H](C)[C@@H](O)[C@H]1C(=O)N[C@@H](CC)C(=O)N(C)[C@H](C)C(=O)N(C)[C@@H](C(C)C)C(=O)N[C@@H]([C@@H](C)CC)C(=O)N(C)[C@@H](CC(C)C)C(=O)NCC(=O)O[C@H](C(C)C)C(=O)N(C)[C@@H](CC(C)C)C(=O)N[C@@H](CC(C)C)C(=O)N(C)[C@@H](C(C)C)C(=O)N1C [(Ig), cyclo-(MeBmt-Abu-D-MeAla-MeVal-Ile-MeLeu-Gly-D-Hiv-MeLeu-Leu-MeVal)] (cyclo([Abu][dNMeA][NMeV]I[NMeL]G[dHiv][NMeL]L[NMeV][MeBmt])) | – | – | – | – | – | – | – | – | – | – | – | 67 µM | – | –
C/C=C/C[C@@H](C)[C@@H](O)[C@H]1C(=O)N[C@@H](CC)C(=O)N(C)[C@H](C)C(=O)N(CC)[C@@H](C(C)C)C(=O)N[C@@H](C(C)C)C(=O)N(C)[C@@H](CC(C)C)C(=O)N[C@@H](C)C(=O)N[C@H](C)C(=O)N(C)[C@@H](CC(C)C)C(=O)N(C)[C@@H](CC(C)C)C(=O)N(C)[C@@H](C(C)C)C(=O)N1C [Debio 025, [D-MeAla]^3-[EtVal]^4-CsA, reference compound] | 15 µM | 1 | 0.24 µM | 1 | 1 | 3.2 µM | 0.034 µM | 2.5 µM | 0.42 µM | 1 | – | – | – | –
C/C=C/C[C@@H](C)[C@@H](O)[C@H]1C(=O)N[C@@H](CC)C(=O)N(C)[C@H](C)C(=O)N(C)[C@@H]([C@@H](C)CC)C(=O)N[C@@H](CC(C)C)C(=O)N(C)[C@@H](CC(C)C)C(=O)NCC(=O)O[C@H](C(C)C)C(=O)N(C)[C@@H](CC(C)C)C(=O)N[C@@H](CC(C)C)C(=O)N(C)[C@@H](C(C)C)C(=O)N1C [(Ii), cyclo-(MeBmt-Abu-D-MeAla-MeIle-Leu-MeLeu-Gly-D-Hiv-MeLeu-Leu-MeVal)] (cyclo([Abu][dNMeA][NMeI]L[NMeL]G[dHiv][NMeL]L[NMeV][MeBmt])) | – | – | – | – | – | – | – | – | – | – | – | 25.4 µM | – | –
